Experimental findings from US8273774B2, “Phenoxypyridinylamide compounds” (AstraZeneca AB, priority 2008, dated 2012) are described below.

Where a name gives a salt, the structure may show the parent alone.

recombinant Human Phosphodiesterase B2 (PDE4B2), sequence (Q07343 1-564 isoform Q07343-2): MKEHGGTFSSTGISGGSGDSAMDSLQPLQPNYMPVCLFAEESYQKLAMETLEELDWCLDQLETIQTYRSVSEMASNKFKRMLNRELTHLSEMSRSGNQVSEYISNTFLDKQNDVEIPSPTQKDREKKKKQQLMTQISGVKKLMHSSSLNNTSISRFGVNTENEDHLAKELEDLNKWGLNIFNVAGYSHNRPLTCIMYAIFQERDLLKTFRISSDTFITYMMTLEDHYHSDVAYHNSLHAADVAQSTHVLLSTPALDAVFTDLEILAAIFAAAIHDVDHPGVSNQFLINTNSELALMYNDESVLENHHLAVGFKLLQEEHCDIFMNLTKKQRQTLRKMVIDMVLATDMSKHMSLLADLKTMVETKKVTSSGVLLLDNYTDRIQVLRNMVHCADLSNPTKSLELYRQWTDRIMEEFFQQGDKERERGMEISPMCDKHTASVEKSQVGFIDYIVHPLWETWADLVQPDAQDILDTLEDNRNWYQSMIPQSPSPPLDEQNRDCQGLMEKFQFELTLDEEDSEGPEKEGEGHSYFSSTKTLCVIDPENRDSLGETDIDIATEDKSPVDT

The experiment addresses recombinant Human Phosphodiesterase B2 (PDE4B2) (Homo sapiens, UniProt Q07343). Kind of experiment: Human Phosphodiesterase B2 Radiometric Assay. The class given is biochemical. The following applies: 0.1 μg/mL recombinant PDE4B2; preincubated at 30 C for 30 min; [3H]cyclic AMP 8 nM, stopped after 20 min; yttrium silicate SPA beads; read-out: PDE4B2 pIC50 (converted). The gist of the method: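 SPA read-out: product 5′AMP binds yttrium silicate beads (added with 18 mM ZnSO4 after 20 min) in preference to [3H]cAMP substrate, given at 8 nM final.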
As to `O=C(N[C@H]1CC[C@@H](NC(=O)c2cc(F)cnc2Oc2cccc(-c3ccc(CCCN4CCNCC4)cc3)c2)CC1)c1cc2n(n1)CCC2` [Example 133, N-((1s,4s)-4-(5-fluoro-2-(4′-(3-(piperazin-1-yl)propyl)biphenyl-3-yloxy)nicotinamido)cyclohexyl)-5,6-dihydro-4H-pyrrolo[1,2-b]pyrazole-2-carboxamide], the IC50 was 0.0501 nM.
As to `Cc1nc(C(=O)N[C@H]2CC[C@@H](NC(=O)c3cc(F)cnc3Oc3cccc(-c4ccc(CCN5CCC(N6CCCC6)CC5)cc4)c3)CC2)cs1` [Example 112, N-((1s,4s)-4-(5-fluoro-2-(4′-(2-(4-(pyrrolidin-1-yl)piperidin-1-yl)ethyl)biphenyl-3-yloxy)nicotinamido)cyclohexyl)-2-methylthiazole-4-carboxamide], the IC50 was 0.0398 nM.
Next, `Cc1cc(C(=O)N[C@H]2CC[C@@H](NC(=O)c3cc(F)cnc3Oc3cccc(-c4ccc(O)cc4CN4CCCOCC4)c3)CC2)nn1C` [Example 19, 2-(2′-((1,4-oxazepan-4-yl)methyl)-4′-hydroxybiphenyl-3-yloxy)-N-((1s,4s)-4-(1,5-dimethyl-1H-pyrazole-3-carboxamido)cyclohexyl)-5-fluoronicotinamide]: 0.01 nM.
As for `O=C(N[C@H]1CC[C@@H](NC(=O)c2cc(F)cnc2Oc2cccc(-c3ccc(O)cc3CN3CCOCC3)c2)CC1)c1cccc(O)c1` [Example 32, 5-fluoro-2-(4′-hydroxy-2′-(morpholinomethyl)biphenyl-3-yloxy)-N-((1s,4s)-4-(3-hydroxybenzamido)cyclohexyl)nicotinamide], the IC50 is 0.316 nM.
Next, `O=C(N[C@H]1CC[C@@H](NC(=O)c2cc(F)cnc2Oc2cccc(-c3ccc(O)cc3CN3CCOCC3)c2)CC1)c1csc(C(F)(F)F)n1` [Example 36, N-((1s,4s)-4-(5-fluoro-2-(4′-hydroxy-2′-(morpholinomethyl)biphenyl-3-yloxy)nicotinamido)cyclohexyl)-2-(trifluoromethyl)thiazole-4-carboxamide]: 0.1 nM; `Cc1cc(C(=O)N[C@H]2CC[C@@H](NC(=O)c3cc(F)cnc3Oc3cccc(-c4ccc(CN5C[C@@H](C)N[C@@H](C)C5)cc4)c3)CC2)nn1C` [Example 62, N-((1s,4s)-4-(1,5-dimethyl-1H-pyrazole-3-carboxamido)cyclohexyl)-2-(4′-(((3S,5R)-3,5-dimethylpiperazin-1-yl)methyl)biphenyl-3-yloxy)-5-fluoronicotinamide]: 0.0251 nM; `CC(C)NC(=O)CN1CCN(Cc2ccc(-c3cccc(Oc4ncc(F)cc4C(=O)N[C@H]4CC[C@@H](NC(=O)c5cccc6[nH]cnc56)CC4)c3)c(CN3CCOCC3)c2)CC1` [Example 201, N-((1s,4s)-4-(5-fluoro-2-(4′-((4-(2-(isopropylamino)-2-oxoethyl)piperazin-1-yl)methyl)-2′-(morpholinomethyl)biphenyl-3-yloxy)nicotinamido)cyclohexyl)-1H-benzo[d]imidazole-4-carboxamide]: 0.0158 nM.
In the case of `Cc1nc(C(=O)N[C@H]2CC[C@@H](NC(=O)c3cc(F)cnc3Oc3cccc(-c4ccc(CN5CCOCC5)cc4O)c3)CC2)cs1` [Example 56, N-((1s,4s)-4-(5-fluoro-2-(2′-hydroxy-4′-(morpholinomethyl)biphenyl-3-yloxy)nicotinamido)cyclohexyl)-2-methylthiazole-4-carboxamide], the IC50 is 0.0251 nM.
Next, `Cc1cc(C(=O)N[C@H]2CC[C@@H](NC(=O)c3cc(F)cnc3Oc3cccc(-c4ccc(CCCN5CCNCC5)cc4)c3)CC2)nn1C` [Example 130, N-((1s,4s)-4-(1,5-dimethyl-1H-pyrazole-3-carboxamido)cyclohexyl)-5-fluoro-2-(4′-(3-(piperazin-1-yl)propyl)biphenyl-3-yloxy)nicotinamide]: 0.0316 nM; `Cc1cc(C(=O)N[C@H]2CC[C@@H](NC(=O)c3cc(F)cnc3Oc3cccc(-c4ccc(CN(C)C)cc4CN4CCOCC4)c3)CC2)nn1C` [Example 120, N-((1s,4s)-4-(1,5-dimethyl-1H-pyrazole-3-carboxamido)cyclohexyl)-2-(4′-((dimethylamino)methyl)-2′-(morpholinomethyl)biphenyl-3-yloxy)-5-fluoronicotinamide]: 0.0501 nM.
Consider `Cc1cccc2nc(C(=O)N[C@H]3CC[C@@H](NC(=O)c4cc(F)cnc4Oc4cccc(-c5ccc(CN6CCCN(C)CC6)cc5)c4)CC3)cn12` [Example 64, N-((1s,4s)-4-(5-fluoro-2-(4′-((4-methyl-1,4-diazepan-1-yl)methyl)biphenyl-3-yloxy)nicotinamido)cyclohexyl)-5-methylimidazo[1,2-a]pyridine-2-carboxamide], for which the IC50 was 0.126 nM.
For `Cc1cc(C(=O)N[C@H]2CC[C@@H](NC(=O)c3cc(F)cnc3Oc3cccc(-c4ccc(CCN5CCC(N6CCCC6)CC5)cc4)c3)CC2)nn1C` [Example 154, N-((1s,4s)-4-(1,5-dimethyl-1H-pyrazole-3-carboxamido)cyclohexyl)-5-fluoro-2-(4′-(2-(4-(pyrrolidin-1-yl)piperidin-1-yl)ethyl)biphenyl-3-yloxy)nicotinamide], the IC50 was 0.0316 nM.
With `Cc1csc(C(=O)N[C@H]2CC[C@@H](NC(=O)c3cc(F)cnc3Oc3cccc(-c4ccc(CCN5CCNCC5)cc4)c3)CC2)n1` [Example 184, N-((1s,4s)-4-(5-Fluoro-2-(4′-(2-(piperazin-1-yl)ethyl)biphenyl-3-yloxy)nicotinamido)cyclohexyl)-4-methylthiazole-2-carboxamide], the IC50 is 0.0398 nM.
The same measure for `Cc1cccc2nc(C(=O)N[C@H]3CC[C@@H](NC(=O)c4cc(F)cnc4Oc4cccc(-c5ccc(C(=O)O)cc5CN5CCOCC5)c4)CC3)cn12` [Example 59, 3′-(5-fluoro-3-((1s,4s)-4-(5-methylimidazo[1,2-a]pyridine-2-carboxamido)cyclohexylcarbamoyl)pyridin-2-yloxy)-2-(morpholinomethyl)biphenyl-4-carboxylic acid]: 0.0794 nM; for `O=C(N[C@H]1CC[C@@H](NC(=O)c2cc(F)cnc2Oc2cccc(-c3ccc(CCN4CCNCC4)cc3)c2)CC1)c1cn2cc(F)ccc2n1` [Example 117, 6-fluoro-N-((1s,4s)-4-(5-fluoro-2-(4′-(2-(piperazin-1-yl)ethyl)biphenyl-3-yloxy)nicotinamido)cyclohexyl)imidazo[1,2-a]pyridine-2-carboxamide]: 0.1 nM.
The same measure for `O=C(N[C@H]1CC[C@@H](NC(=O)c2cc(F)cnc2Oc2cccc(-c3ccc(O)cc3CN3CCOCC3)c2)CC1)c1cc(O)c2ccccc2n1` [Example 41, N-((1s,4s)-4-(5-fluoro-2-(4′-hydroxy-2′-(morpholinomethyl)biphenyl-3-yloxy)nicotinamido)cyclohexyl)-4-hydroxyquinoline-2-carboxamide]: 0.1 nM.
In the case of `O=C(N[C@H]1CC[C@@H](NC(=O)c2cc(F)cnc2Oc2cccc(-c3ccc(O)cc3CN3CCOCC3)c2)CC1)c1ccc(O)cc1` [Example 31, 5-fluoro-2-(4′-hydroxy-2′-(morpholinomethyl)biphenyl-3-yloxy)-N-((1s,4s)-4-(4-hydroxybenzamido)cyclohexyl)nicotinamide], the IC50 is 0.501 nM.
`Cc1cc(C(=O)N[C@H]2CC[C@@H](NC(=O)c3cc(F)cnc3Oc3cccc(-c4ccc(CCCN5CCNCC5)cc4)c3)CC2)n[nH]1` [Example 157, 5-Fluoro-N-((1s,4s)-4-(5-methyl-1H-pyrazole-3-carboxamido)cyclohexyl)-2-(4′-(3-(piperazin-1-yl)propyl)biphenyl-3-yloxy)nicotinamide]: the IC50 is 0.0794 nM.
Turning to `Cc1cc(C(=O)N[C@H]2CC[C@@H](NC(=O)c3cc(F)cnc3Oc3cccc(-c4cccc(CN5C[C@@H](C)N[C@@H](C)C5)c4Cl)c3)CC2)nn1C` [Example 107, 2-(2′-chloro-3′-(((3S,5R)-3,5-dimethylpiperazin-1-yl)methyl)biphenyl-3-yloxy)-N-((1s,4s)-4-(1,5-dimethyl-1H-pyrazole-3-carboxamido)cyclohexyl)-5-fluoronicotinamide], the IC50 was 0.158 nM.
For `O=C(N[C@H]1CC[C@@H](NC(=O)c2cc(F)cnc2Oc2cccc(-c3ccc(CN4CCNCC4)cc3)c2)CC1)c1cn2c(n1)CCCC2` [Example 1, N-((1s,4s)-4-(5-fluoro-2-(4′-(piperazin-1-ylmethyl)biphenyl-3-yloxy)nicotinamido)cyclohexyl)-5,6,7,8-tetrahydroimidazo[1,2-a]pyridine-2-carboxamide], the IC50 is 0.126 nM.
The same measure for `Cc1cc(CN(Cc2cc(C)n(C)n2)[C@H]2CC[C@@H](NC(=O)c3cc(F)cnc3Oc3cccc(-c4ccc(O)cc4CN4CCOCC4)c3)CC2)nn1C` [Example 4, N-((1s,4s)-4-(bis((1,5-dimethyl-1H-pyrazol-3-yl)methyl)amino)cyclohexyl)-5-fluoro-2-(4′-hydroxy-2′-(morpholinomethyl)biphenyl-3-yloxy)nicotinamide trifluoroacetate]: 63.1 nM; for `C[C@@H]1CN(Cc2ccc(-c3cccc(Oc4ncc(F)cc4C(=O)N[C@H]4CC[C@@H](NC(=O)c5cn6cc(F)ccc6n5)CC4)c3)cc2)C[C@H](C)N1` [Example 67, N-((1s,4s)-4-(2-(4′-(((3S,5R)-3,5-dimethylpiperazin-1-yl)methyl)biphenyl-3-yloxy)-5-fluoronicotinamido)cyclohexyl)-6-fluoroimidazo[1,2-a]pyridine-2-carboxamide]: 0.1 nM.
For the compound `O=C(N[C@H]1CC[C@@H](NC(=O)c2cnn3cccnc23)CC1)c1cc(F)cnc1Oc1cccc(-c2ccc(CN3CCSCC3)cc2CN2CCOCC2)c1` [Example 197, N-((1s,4s)-4-(5-fluoro-2-(2′-(morpholinomethyl)-4′-(thiomorpholinomethyl)biphenyl-3-yloxy)nicotinamido)cyclohexyl)pyrazolo[1,5-a]pyrimidine-3-carboxamide], the IC50 was 0.02 nM.
